Results on 38 compounds are retold here after the NIST ThermoML archive (doi:10.1021/je200637v).

Each structure is given as a SMILES string. Numbers after ± are expanded uncertainties.

A short description of this data set: activity coefficient (dimensionless); of the first substance listed, at infinite dilution; xn = mol fraction of the nth substance listed. The conditions noted are these: Liquid, Chromatography, x1 = 0.

Turning to `CC(C)CO` [2-methyl-1-propanol] + CCCCCCCCCC[N+](C)(C)C.O=S(=O)([N-]S(=O)(=O)C(F)(F)F)C(F)(F)F, the activity coefficient was 1.59 ± 0.06 (322.85 K), 1.47 ± 0.06 (332.65 K) and 1.31 ± 0.05 (343.15 K).
The like results for `C=O` [methanal] + CCCCCCCCCC[N+](C)(C)C.O=S(=O)([N-]S(=O)(=O)C(F)(F)F)C(F)(F)F were, in that order, 0.09 ± 0.04, 0.1 ± 0.04 and 0.11 ± 0.04.
The matching figures for `OCC(F)(F)F` [2,2,2-trifluoroethanol] + CCCCCCCCCC[N+](C)(C)C.O=S(=O)([N-]S(=O)(=O)C(F)(F)F)C(F)(F)F: 0.46 ± 0.03, 0.44 ± 0.03 and 0.41 ± 0.03.
The matching figures for `CCc1ccccc1` [ethylbenzene] + CCCCCCCCCC[N+](C)(C)C.O=S(=O)([N-]S(=O)(=O)C(F)(F)F)C(F)(F)F: 1.16 ± 0.04, 1.2 ± 0.04 and 1.19 ± 0.04.
In the case of `CCCCCCCCCCCC` [dodecane] + CCCC[N+](C)(CCCC)CCCC.O=S(=O)([N-]S(=O)(=O)C(F)(F)F)C(F)(F)F, the activity coefficient is, setting by setting: (322.85 K) 32.4 ± 1.5; (332.65 K) 31.3 ± 1.4; (343.15 K) 28.8 ± 1.3.
As for `CCCCCCCCCCC` [undecane] + CCCCCCCC[N+](CCCCCCCC)(CCCCCCCC)CCCCCCCC.O=S(=O)([N-]S(=O)(=O)C(F)(F)F)C(F)(F)F, the activity coefficient (343.15 K) was 2.54 ± 0.12.
Turning to `CCCCO` [butan-1-ol] + CCCCCCCC[N+](C)(C)C.O=S(=O)([N-]S(=O)(=O)C(F)(F)F)C(F)(F)F, the activity coefficient reads like this: (322.85 K) 2.01 ± 0.09; (332.65 K) 1.8 ± 0.08; (343.15 K) 1.59 ± 0.06.
The like results for `CC1CCCCC1` [methylcyclohexane] + CCCCCCCCCC[N+](C)(C)C.O=S(=O)([N-]S(=O)(=O)C(F)(F)F)C(F)(F)F were, in that order, 3.57 ± 0.16, 3.57 ± 0.16 and 3.39 ± 0.15.
The matching figures for `c1ccsc1` [thiophene] + CCCCCCCC[N+](C)(C)C.O=S(=O)([N-]S(=O)(=O)C(F)(F)F)C(F)(F)F: 0.69 ± 0.03, 0.69 ± 0.03 and 0.69 ± 0.03.
The matching figures for `CCCCCCCCCCC` [undecane] + CCCC[N+](C)(CCCC)CCCC.O=S(=O)([N-]S(=O)(=O)C(F)(F)F)C(F)(F)F: 25.7 ± 1.2, 24.8 ± 1.1 and 22.8 ± 1.1.
Turning to `CCC[N+](=O)[O-]` [1-nitropropane] + CCCCCCCCCC[N+](C)(C)C.O=S(=O)([N-]S(=O)(=O)C(F)(F)F)C(F)(F)F, the activity coefficient amounted to 0.59 ± 0.03 (322.85 K), 0.59 ± 0.03 (332.65 K) and 0.57 ± 0.03 (343.15 K).
Consider `ClCCl` [dichloromethane] + CCCCCCCC[N+](C)(C)C.O=S(=O)([N-]S(=O)(=O)C(F)(F)F)C(F)(F)F, for which the activity coefficient is, setting by setting: (322.85 K) 0.51 ± 0.03; (332.65 K) 0.53 ± 0.03; (343.15 K) 0.54 ± 0.03.
The matching figures for `C1CCCCCC1` [cycloheptane] + CCCC[N+](C)(CCCC)CCCC.O=S(=O)([N-]S(=O)(=O)C(F)(F)F)C(F)(F)F: 12.4 ± 0.57, 17.7 ± 0.82 and 23.9 ± 1.1.
Consider `C[N+](=O)[O-]` [nitromethane] + CCCCCCCC[N+](C)(C)C.O=S(=O)([N-]S(=O)(=O)C(F)(F)F)C(F)(F)F, for which the activity coefficient reads like this: (322.85 K) 0.6 ± 0.03; (332.65 K) 0.58 ± 0.03; (343.15 K) 0.55 ± 0.03.
The matching figures for `Cc1ccccc1` [toluene] + CCCC[N+](C)(CCCC)CCCC.O=S(=O)([N-]S(=O)(=O)C(F)(F)F)C(F)(F)F: 1.13 ± 0.03, 1.19 ± 0.04 and 1.19 ± 0.04.
Turning to `c1ccncc1` [pyridine] + CCCCCCCCCC[N+](C)(C)C.O=S(=O)([N-]S(=O)(=O)C(F)(F)F)C(F)(F)F, the activity coefficient (322.85 K) is 0.46 ± 0.03, the activity coefficient (332.65 K) stood at 0.47 ± 0.03 and the activity coefficient (343.15 K) came to 0.47 ± 0.03.
As to `ClCCl` [dichloromethane] + CCCC[N+](C)(CCCC)CCCC.O=S(=O)([N-]S(=O)(=O)C(F)(F)F)C(F)(F)F, the activity coefficient amounted to 0.66 ± 0.03 (322.85 K), 0.69 ± 0.03 (332.65 K) and 0.7 ± 0.03 (343.15 K).
For the compound `C1CCCCC1` [cyclohexane] + CCCCCCCCCC[N+](C)(C)C.O=S(=O)([N-]S(=O)(=O)C(F)(F)F)C(F)(F)F, the activity coefficient is, setting by setting: (322.85 K) 2.9 ± 0.13; (332.65 K) 2.96 ± 0.13; (343.15 K) 2.8 ± 0.13.
The like results for `C1COCCO1` [1,4-dioxane] + CCCCCCCC[N+](CCCCCCCC)(CCCCCCCC)CCCCCCCC.O=S(=O)([N-]S(=O)(=O)C(F)(F)F)C(F)(F)F were, in that order, 0.47 ± 0.03, 0.47 ± 0.03 and 0.47 ± 0.03.
The matching figures for `C#CCCCCC` [1-heptyne] + CCCCCCCCCC[N+](C)(C)C.O=S(=O)([N-]S(=O)(=O)C(F)(F)F)C(F)(F)F: 1.95 ± 0.09, 2.02 ± 0.09 and 1.97 ± 0.09.
Regarding `Cc1ccc(C)cc1` [1,4-dimethylbenzene] + CCCCCCCC[N+](CCCCCCCC)(CCCCCCCC)CCCCCCCC.O=S(=O)([N-]S(=O)(=O)C(F)(F)F)C(F)(F)F, the activity coefficient by setting is: (332.65 K) 0.6 ± 0.03; (343.15 K) 0.62 ± 0.03.
In the case of `CCC(C)=O` [butanone] + CCCCCCCC[N+](CCCCCCCC)(CCCCCCCC)CCCCCCCC.O=S(=O)([N-]S(=O)(=O)C(F)(F)F)C(F)(F)F, the activity coefficient was found to be 0.29 ± 0.04 (322.85 K), 0.28 ± 0.04 (332.65 K) and 0.26 ± 0.04 (343.15 K).
The matching figures for `CCCC(C)=O` [pentan-2-one] + CCCCCCCC[N+](CCCCCCCC)(CCCCCCCC)CCCCCCCC.O=S(=O)([N-]S(=O)(=O)C(F)(F)F)C(F)(F)F: 0.35 ± 0.04, 0.36 ± 0.04 and 0.37 ± 0.03.
As for `CCCCCCCCCCCC` [dodecane] + CCCCCCCC[N+](CCCCCCCC)(CCCCCCCC)CCCCCCCC.O=S(=O)([N-]S(=O)(=O)C(F)(F)F)C(F)(F)F, the activity coefficient (343.15 K) amounted to 2.72 ± 0.12.
As to `C1COCCO1` [1,4-dioxane] + CCCCCCCCCC[N+](C)(C)C.O=S(=O)([N-]S(=O)(=O)C(F)(F)F)C(F)(F)F, the activity coefficient is 0.56 ± 0.03 (322.85 K), 0.57 ± 0.03 (332.65 K) and 0.57 ± 0.03 (343.15 K).
Take `c1ccncc1` [pyridine] + CCCCCCCC[N+](CCCCCCCC)(CCCCCCCC)CCCCCCCC.O=S(=O)([N-]S(=O)(=O)C(F)(F)F)C(F)(F)F: the activity coefficient by setting is: (322.85 K) 0.33 ± 0.04; (332.65 K) 0.33 ± 0.04; (343.15 K) 0.34 ± 0.04.
With `CC(C)OC(C)C` [diisopropyl ether] + CCCCCCCC[N+](CCCCCCCC)(CCCCCCCC)CCCCCCCC.O=S(=O)([N-]S(=O)(=O)C(F)(F)F)C(F)(F)F, the activity coefficient is 1.08 ± 0.03 (322.85 K), 1.08 ± 0.03 (332.65 K) and 1.08 ± 0.03 (343.15 K).
As to `C=CCCCC` [hex-1-ene] + CCCCCCCC[N+](C)(C)C.O=S(=O)([N-]S(=O)(=O)C(F)(F)F)C(F)(F)F, the activity coefficient (322.85 K) was found to be 3.99 ± 0.18, the activity coefficient (332.65 K) came out at 3.8 ± 0.17 and the activity coefficient (343.15 K) came out at 3.6 ± 0.16.
The like results for `CCN(CC)CC` [triethylamine] + CCCCCCCC[N+](CCCCCCCC)(CCCCCCCC)CCCCCCCC.O=S(=O)([N-]S(=O)(=O)C(F)(F)F)C(F)(F)F were, in that order, 1.03 ± 0.03, 1.05 ± 0.03 and 1.02 ± 0.03.
Consider `CCCCCCCCC` [nonane] + CCCC[N+](C)(CCCC)CCCC.O=S(=O)([N-]S(=O)(=O)C(F)(F)F)C(F)(F)F, for which the activity coefficient was found to be 16.5 ± 0.76 (322.85 K), 16.1 ± 0.74 (332.65 K) and 15 ± 0.69 (343.15 K).
The matching figures for `CCCCCCCCCC` [decane] + CCCCCCCCCC[N+](C)(C)C.O=S(=O)([N-]S(=O)(=O)C(F)(F)F)C(F)(F)F: 10.1 ± 0.46, 9.82 ± 0.45 and 9.32 ± 0.43.
The matching figures for `ClC(Cl)(Cl)Cl` [tetrachloromethane] + CCCCCCCC[N+](CCCCCCCC)(CCCCCCCC)CCCCCCCC.O=S(=O)([N-]S(=O)(=O)C(F)(F)F)C(F)(F)F: 0.63 ± 0.03, 0.64 ± 0.03 and 0.64 ± 0.03.
The matching figures for `CCC(=O)CC` [pentan-3-one] + CCCCCCCC[N+](CCCCCCCC)(CCCCCCCC)CCCCCCCC.O=S(=O)([N-]S(=O)(=O)C(F)(F)F)C(F)(F)F: 0.32 ± 0.04, 0.33 ± 0.04 and 0.35 ± 0.04.
As for `Cc1ccc(C)cc1` [1,4-dimethylbenzene] + CCCCCCCC[N+](C)(C)C.O=S(=O)([N-]S(=O)(=O)C(F)(F)F)C(F)(F)F, the activity coefficient (322.85 K) is 1.38 ± 0.05, the activity coefficient (332.65 K) amounted to 1.39 ± 0.05 and the activity coefficient (343.15 K) was determined as 1.37 ± 0.05.
Take `CCCCO` [butan-1-ol] + CCCC[N+](C)(CCCC)CCCC.O=S(=O)([N-]S(=O)(=O)C(F)(F)F)C(F)(F)F: the activity coefficient stood at 2.1 ± 0.1 (322.85 K), 1.89 ± 0.08 (332.65 K) and 1.73 ± 0.07 (343.15 K).
The matching figures for `CCCCCC` [hexane] + CCCC[N+](C)(CCCC)CCCC.O=S(=O)([N-]S(=O)(=O)C(F)(F)F)C(F)(F)F: 6.75 ± 0.31, 6.75 ± 0.31 and 6.44 ± 0.29.
The like results for `C1CCCCCC1` [cycloheptane] + CCCCCCCCCC[N+](C)(C)C.O=S(=O)([N-]S(=O)(=O)C(F)(F)F)C(F)(F)F were, in that order, 7.7 ± 0.35, 10.8 ± 0.49 and 14.6 ± 0.67.
Consider `OCC(F)(F)F` [2,2,2-trifluoroethanol] + CCCC[N+](C)(CCCC)CCCC.O=S(=O)([N-]S(=O)(=O)C(F)(F)F)C(F)(F)F, for which the activity coefficient runs as follows: (322.85 K) 0.5 ± 0.03; (332.65 K) 0.48 ± 0.03; (343.15 K) 0.45 ± 0.03.
